# Assay results from patent publication US20120165319A1, “INHIBITORS OF INTERLEUKIN-1 BETA CONVERTING ENZYME” (VERTEX PHARMACEUTICALS INCORPORATED, priority 1995, published 2012).
# Read-outs that look alike come from different tables or passages of the source.
# Legend:
# [1] = tested on: IL-1β, human peripheral blood mononuclear cells (PBMC); test: PBMC cell assay: IL-1β assay with human PBMC or enriched adherent mononuclear cells, LPS-stimulated; format: cell-based; conditions: * = values obtained upon reassay
# Outline: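 Buffy-coat human PBMC at 6×10^6 cells/ml, or adherent monocytes enriched by 1 h adherence (2.5−3.0×10^5 cells/well), are given 5–6 compound dilutions bracketing the ICE Ki (final DMSO 0.1%) plus LPS at a final 5 ng/ml. They are incubated 16–18 hr at 37 °C, 5% CO2, and supernatant mature IL-1β is measured by ELISA, with duplicate cultures and duplicate ELISAs.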
# ICE = target: T1, ICE (Homo sapiens, UniProt P29466); test: Enzyme assay with UV-visible substrate (visible ICE assay, Succinyl-Tyr-Val-Ala-Asp-pNitroanilide); format: biochemical; conditions: Table 5
# T1 sequence (P29466 120-297 limits assumed): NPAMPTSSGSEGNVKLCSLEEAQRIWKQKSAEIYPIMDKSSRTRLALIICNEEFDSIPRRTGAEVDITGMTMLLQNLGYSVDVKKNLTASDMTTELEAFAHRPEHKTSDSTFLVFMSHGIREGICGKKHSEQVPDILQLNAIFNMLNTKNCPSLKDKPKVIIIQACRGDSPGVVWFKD
# T1 sequence (P29466 317-404 limits assumed): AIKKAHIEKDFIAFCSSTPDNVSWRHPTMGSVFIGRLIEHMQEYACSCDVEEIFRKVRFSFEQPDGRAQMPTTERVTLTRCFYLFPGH
# Outline: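 Buffer, ICE and inhibitor in DMSO are combined and held 15 min at room temperature. Succinyl-Tyr-Val-Ala-Asp-pNA is then added and absorbance at 405-603 nm tracked for 20 min at 37° C.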
# IL-1β, human whole blood = test: Whole blood assay for IL-1β production; format: cell-based; conditions: * = values obtained upon reassay, read-out: Whole human blood IC50
# Description: The whole blood assay is a simple method for measuring the production of IL-1b (or other cytokines) and the activity of potential inhibitors. The complexity of this assay system, with its full complement of lymphoid and inflammatory cell types, spectrum of plasma proteins and red blood cells is an ideal in vitro representation of human in vivo physiologic conditions.
# Pyrogen-free syringes (˜30 cc) Pyrogen-free sterile vacuum tubes containing lyophilized Na2EDTA (4.5 mg/10 ml tube) Human whole blood sample (˜30-50 cc) 1.5 ml eppendorf tubes Test compound stock solutions (˜25 mM in DMSO or other solvent) Endotoxin-free sodium chloride solution (0.9%) and HBSS Lipopolysaccharide (Sigma; Cat. # L-3012) stock solution at 1 mg/ml in HBSS
# IL-1β ELISA Kit (R & D Systems; Cat # DLB50)
# TNFα ELISA Kit (R & D Systems; Cat # DTA50)
# Whole Blood Assay Experimental Procedure:
# Set incubator or water bath at 30° C. Aliquot 0.25 ml of blood into 1.5 ml eppendorf tubes. Note: be sure to invert the whole blood sample tubes after every two aliquots. Differences in replicates may result if the cells sediment and are not uniformly suspended. Use of a positive displacement pipette will also minimize differences between replicate aliquots.
# Prepare drug dilutions in sterile pyrogen-free saline by serial dilution. A dilution series which brackets the apparent Ki for a test compound determined in an ICE inhibition assay is generally used for the primary compound screen.
# Add 25 μl test compound dilution or vehicle control and gently mix the sample. Then add 5.0 μl LPS solution (250 ng/ml stocked prepared fresh: 5.0 ng/ml final concentration LPS), and mix again. Incubate the tubes at 30° C. in a water bath for 16-18 hr with occasional mixing. Alternatively, the tubes can be placed in a rotator set at 4 rpm for the same incubation period. This assay should be set up in duplicate or triplicate with the following controls: negative control—no LPS; positive control—no test inhibitor; vehicle control—the highest concentration of DMSO or compound solvent used in the experiment. Additional saline is added to all control tubes to normalize volumes for both control and experimental whole blood test samples
# After the incubation period, whole blood samples are centrifuged for 10 minutes at ˜2000 rpm in the microfuge, plasma is transferred to a fresh microfuge tube and centrifuged at 1000×g to pellet residual platelets if necessary. Plasma samples may be stored frozen at −70° C. prior to assay for cytokine levels by ELISA.
# We have used R & D Systems (614 McKinley Place N.E. Minneapolis, Minn. 55413) Quantikine kits for measurement of IL-1β and TNF-α. The assays are performed according to the manufacturer's directions.
# We have observed IL-1β levels of ˜1-5 ng/ml in positive controls among a range of individuals. A 1:200 dilution of plasma for all samples has been sufficient in our experiments for ELISA results to fall on the linear range of the ELISA standard curves. It may be necessary to optimize standard dilutions if you observe differences in the whole blood assay. Nerad, J. L. et al., J. Leukocyte Biol., 52, pp. 687-692 (1992).
Ki (ICE) [nM],"IC50 (IL-1β, human whole blood; Homo sapiens) [nM]","IC50 (IL-1β, human whole blood) [nM]",SMILES,"IC50 ([1]; Homo sapiens, PBMC) [nM]",IC50 [1] [nM]
0.4,1700,–,O=C[C@H](CC(=O)O)NC(=O)[C@@H]1CCCN2C(=O)CC[C@H](NC(=O)c3ccc4ccccc4c3)C(=O)N12 [Compound 407],540,–
0.9,1900,–,O=C[C@H](CC(=O)O)NC(=O)[C@@H]1CCCN2C(=O)CC[C@H](NC(=O)c3ccc4ccccc4n3)C(=O)N12 [Compound 411],540,–
50,1200,–,CCn1nc(C)cc1C(=O)N[C@H]1CCC(=O)N2CCC[C@@H](C(=O)N[C@H](C=O)CC(=O)O)N2C1=O [Compound 422],2200,–
45,4000,–,Cc1cc(C(=O)N[C@H]2CCC(=O)N3CCC[C@@H](C(=O)N[C@H](C=O)CC(=O)O)N3C2=O)no1 [Compound 424],2500,–
0.8,650,–,O=C[C@H](CC(=O)O)NC(=O)[C@@H]1CCCN2C(=O)CC[C@H](NC(=O)c3ccc4cc(O)ccc4c3)C(=O)N12 [Compound 425],650,700
8,8000,–,Nc1ccc(C(=O)N[C@H]2CCC(=O)N3CCC[C@@H](C(=O)N[C@H](C=O)CC(=O)O)N3C2=O)cc1 [Compound 431],> 8000,–
1.6,2000,–,O=C[C@H](CC(=O)O)NC(=O)[C@@H]1CCCN2C(=O)CC[C@H](NC(=O)c3ccc4nn[nH]c4c3)C(=O)N12 [Compound 432],560,–
2.9,1100,–,Cn1c(C(=O)N[C@H]2CCC(=O)N3CCC[C@@H](C(=O)N[C@H](C=O)CC(=O)O)N3C2=O)cc2ccccc21 [Compound 433],1000,1100
12,5000,–,COc1cc(C(=O)N[C@H]2CCC(=O)N3CCC[C@@H](C(=O)N[C@H](C=O)CC(=O)O)N3C2=O)nc2ccccc12 [Compound 437],1800,–
3.7,3200,3400,O=C[C@H](CC(=O)O)NC(=O)[C@@H]1CCCN2C(=O)CC[C@H](NC(=O)c3cccc4cccnc34)C(=O)N12 [Compound 439],2800,–
2.3,2000,–,Nc1cc2ccccc2cc1C(=O)N[C@H]1CCC(=O)N2CCC[C@@H](C(=O)N[C@H](C=O)CC(=O)O)N2C1=O [Compound 440],5000,–
1,4500,–,CN(C)c1ccc(C(=O)N[C@H]2CCC(=O)N3CCC[C@@H](C(=O)N[C@H](C=O)CC(=O)O)N3C2=O)c2ccccc12 [Compound 441],2500,–
3.6,1500,–,O=C[C@H](CC(=O)O)NC(=O)[C@@H]1CCCN2C(=O)CC[C@H](NC(=O)c3ccc(Oc4ccccc4)cc3)C(=O)N12 [Compound 443],2800,–
15,3500,–,O=C[C@H](CC(=O)O)NC(=O)[C@@H]1CCCN2C(=O)CC[C@H](NC(=O)c3c(Cl)cccc3Cl)C(=O)N12 [Compound 444],3500,–
5.8,1500,–,CS(=O)(=O)Nc1ccc(C(=O)N[C@H]2CCC(=O)N3CCC[C@@H](C(=O)N[C@H](C=O)CC(=O)O)N3C2=O)cc1 [Compound 447],2500,–
0.65,1900,1600,O=C[C@H](CC(=O)O)NC(=O)[C@@H]1CCCN2C(=O)CC[C@H](NC(=O)c3cc4ccccc4s3)C(=O)N12 [Compound 453],1300,–

Ki (ICE) [nM],"IC50 (IL-1β, human whole blood; Homo sapiens) [nM]","IC50 (IL-1β, human whole blood) [nM]",SMILES,"IC50 ([1]; Homo sapiens, PBMC) [nM]",IC50 [1] [nM]
6.2,3500,–,O=C[C@H](CC(=O)O)NC(=O)[C@@H]1CCCN2C(=O)CC[C@H](NC(=O)c3ccc(OC(=O)c4ccc(O)cc4)cc3)C(=O)N12 [Compound 457],2000,–
115,2400,–,CS(=O)(=O)c1ccc(C(=O)N[C@H]2CCC(=O)N3CCC[C@@H](C(=O)N[C@H](C=O)CC(=O)O)N3C2=O)cc1 [Compound 460],400,–
3,800,–,Cc1c(Cl)cccc1C(=O)N[C@H]1CCC(=O)N2CCC[C@@H](C(=O)N[C@H](C=O)CC(=O)O)N2C1=O [Compound 465],1000,–
0.8,600,–,Cc1ccc(Cl)cc1C(=O)N[C@H]1CCC(=O)N2CCC[C@@H](C(=O)N[C@H](C=O)CC(=O)O)N2C1=O [Compound 466],1400,–
4.5,2500,–,Cc1nc(-c2ccc(C(F)(F)F)cc2)sc1C(=O)N[C@H]1CCC(=O)N2CCC[C@@H](C(=O)N[C@H](C=O)CC(=O)O)N2C1=O [Compound 468],850,–
1,400,450,Cc1cc2c(cc1C(=O)N[C@H]1CCC(=O)N3CCC[C@@H](C(=O)N[C@H](C=O)CC(=O)O)N3C1=O)OCO2 [Compound 473],1000,–
7,2500,–,Cc1c(O)cccc1C(=O)N[C@H]1CCC(=O)N2CCC[C@@H](C(=O)N[C@H](C=O)CC(=O)O)N2C1=O [Compound 476],1600,–
< 0.2,380,260,Nc1c(Cl)cc(C(=O)N[C@H]2CCC(=O)N3CCC[C@@H](C(=O)N[C@H](C=O)CC(=O)O)N3C2=O)cc1Cl [Compound 482],340,–
1.7,700,–,O=C[C@H](CC(=O)O)NC(=O)[C@@H]1CCCN2C(=O)CC[C@H](NC(=O)c3ccc(NC(=O)c4ccccc4)cc3)C(=O)N12 [Compound 483],900,–
2,900,–,CCC(=O)Nc1ccc(C(=O)N[C@H]2CCC(=O)N3CCC[C@@H](C(=O)N[C@H](C=O)CC(=O)O)N3C2=O)cc1 [Compound 485],900,–
1.5,750,–,CCCC(=O)Nc1ccc(C(=O)N[C@H]2CCC(=O)N3CCC[C@@H](C(=O)N[C@H](C=O)CC(=O)O)N3C2=O)cc1 [Compound 488],940,–
6,15000,–,CNC(=O)Nc1ccc(C(=O)N[C@H]2CCC(=O)N3CCC[C@@H](C(=O)N[C@H](C=O)CC(=O)O)N3C2=O)cc1 [Compound 489],2250,1700
25,800,850,COc1ccc(C(=O)N[C@H]2CCC(=O)N3CCC[C@@H](C(=O)N[C@H](C=O)CC(=O)O)N3C2=O)cc1F [Compound 493],1200,–
15,7000,–,O=C[C@H](CC(=O)O)NC(=O)[C@@H]1CCCN2C(=O)CC[C@H](NC(=O)/C=C/c3ccccc3)C(=O)N12 [Compound 494],1350,1500
16,6000,–,O=C[C@H](CC(=O)O)NC(=O)[C@@H]1CCCN2C(=O)CC[C@H](NC(=O)OCc3ccccc3)C(=O)N12 [Compound 496],1550,1600
